In patent US11957127B1, “1,3-bis(naphthalen-2-yloxy)propan-2-one as an eco-friendly insecticidal agent against Spodoptera littoralis (boisd.)” (priority 2023, dated 2024):
Values after ≈ are worked out from the molar mass of the structure shown. Like-named read-outs stand apart in the source and are kept apart here.

System: Spodoptera littoralis
Assay: Insecticidal bioassay screening (castor leaf dip, larval mortality)
Type: in vivo
Details: for Toxic ratio: 72 h, fenoxycarb's LC50 / compound's LC50 × 100
Procedure: Five concentrations (200, 100, 50, 25, 12.5 ppm) were designed for this synthetic compound and the reference fenoxycarb compound as the dynamic ingredients based on ppm via diluting the commercial formulation.
In this experiment, castor leaves are immersed in each of the previously prepared concentrations of the components for 10 seconds and then left to dry for 60 minutes. Larvae of the second and fourth instars of each checked strain are prepared with treated leaves in gauze-covered glass containers for 72 hrs. An untreated control is made in which leaves are dipped in triton x-100 and distilled water only. Then the preserved leaves were removed & fresh, untreated leaves were provided for 72 hours. Three replicates (10 larvae each) were checked for each concentration. Daily inspection was carried out for all treatments and mortality percentages were recorded 3 days (72 hours) after treatment. The average mortality percentage was corrected employing Abbott's formula. The corrected mortality rate for each of the previously synthesized compounds is statistically calculated according to Finney (1970). Through this rate, the corresponding concentration test lines (LDP lines) are assessed. Fifty and ninety percent mortality are determined, and the regression values for the checked products were previously evaluated.

[1] = 2nd instar larvae of S. littoralis, after 72 h of treatment
[2] = 4th instar larvae of S. littoralis, after 72 h of treatment

Compound	LC50 [1] [ppm]	Toxic ratio (2nd instar larvae)	LC50 [2] [ppm]	Toxic ratio (4th instar larvae)	LC50 (Spodoptera littoralis, foliar) [µg/mL]	LC50 (2nd instar larvae of S. littoralis, after 72 h of treatment, listed as 1,3-bis(naphthalen-2-yloxy)propan-2-one)	LC50 (4th instar larvae of S. littoralis, after 72 h of treatment, listed as 1,3-bis(naphthalen-2-yloxy)propan-2-one)	activity against Spodoptera littoralis (in words) (compared with reference insecticide fenoxycarb)	LC50 (foliar, against Spodoptera littoralis under laboratory conditions (instar not given), read-out: LC50) [µg/mL]
CCOC(=O)NCCOc1ccc(Oc2ccccc2)cc1 [Fenoxycarb, reference compound]	2.73	100	43.231	1	2.73 (≈ 9.06 µM)	–	–	–	–
O=C(COc1ccc2ccccc2c1)COc1ccc2ccccc2c1 [Compound 4, 1,3-bis(naphthalen-2-yloxy)propan-2-one]	38.69	7.0	86.921	49.7	–	about 38.69 ppm	about 86.921 ppm	active	38.7 (≈ 113 µM)
